# Experimental data published in patent US10646580B2, “Oligosaccharide conjugates for targeting bacteria and uses related thereto” (priority 2011, dated 2020).
# System: Escherichia coli (ATCC 33456)
# Test: Ampicillin IC50 in E. coli
# Type: cell-based
# Conditions: ATCC33456
# Experimental: The ability of antibiotics to inhibit the uptake of MDP-1 in Escherichia coli was investigated. Escherichia coli (ATCC 33456) were grown in LB medium at 37° C. under 5% CO2 to an OD600=0.5, as described above. […] Escherichia coli were incubated with ampicillin for 1 hour at 37° C. under 5% CO2, and 60 μL of MDP-1 stock solutions (1 mM in PBS) were added, generating a 20 μM MDP concentration. Escherichia coli were incubated with MDPs in the presence of ampicillin for 1 hour at 37° C. under 5% CO2 in an incubator shaker. At this stage, a small aliquot of the bacterial culture was plated to determine the CFUs of bacteria in the MDP solution. Escherichia coli were harvested by centrifuging and the resulting pellets were washed 3 times with 10 mL PBS. The intracellular fluorescence of the bacteria was determined as described in FIG. 3a.
structure (smiles),measurement,value
CC1(C)S[C@@H]2[C@H](NC(=O)[C@H](N)c3ccccc3)C(=O)N2[C@H]1C(=O)O [ampicillin],IC50,3 µg/mL
